We go through one molecule from PubChem BioAssay AID1259411 (Chemical Carcinogenesis Research Information System (CCRIS), 2018).

The source made the active and inactive calls. How the calls were made is not given here.

For this data set, the system named is rodent carcinogenicity bioassays, tumor incidence. Nature of the data set: CCRIS carcinogenicity studies. An excerpt:
The CCRIS database contains chemical records with carcinogenicity, mutagenicity, tumor promotion, and tumor inhibition test results. It was developed by the National Cancer Institute (NCI). Data are derived from studies cited in primary journals, current awareness tools, NCI reports, and other sources. Test results have been reviewed by experts in carcinogenesis and mutagenesis.
CCRIS provides historical information from the years 1985 - 2011. It is no longer updated.
This is an archive assay for CCRIS carcinogenicity studies.

With `c1ccccc1`, the carcinogen call by setting is: (Species: HUMAN, Route: INHALATION, DERMAL, Tumor Site: Type of Lesion: HEMATOPOIETIC SYSTEM (LEUKEMIA)) “active; positive”; (Species: MOUSE, Route: INHALATION, Dose: 0, 300 PPM 6 HR/D 5 D/WK FOR 16 WK (STUDY DURATION: LIFETIME), Tumor Site: Type of Lesion: HEMATOPOIETIC SYSTEM: LYMPHOMA) “active; positive”; (Species: MOUSE, Strain/Sex: B6C3F1/FEMALE, Route: GAVAGE, Dose: 0, 25, 50, 100 MG/KG IN CORN OIL 5 D/WK FOR 103 WK, Dose: 0, 25, 50, 100 MG/KG IN CORN OIL 5 D/WK FOR 103 WK, Tumor Site: Type of Lesion: LUNG: ALVEOLAR/BRONCHIOLAR CARCINOMA, ALVEOLAR/BRONCHIOLAR ADENOMA OR CARCINOMA, HEMATOPOIETIC SYSTEM: MALIGNANT LYMPHOM) “active; positive”; (Species: MOUSE, Strain/Sex: B6C3F1/MALE, Route: GAVAGE, Dose: 0, 25, 50, 100 MG/KG IN CORN OIL 5 D/WK FOR 103 WK, Dose: 0, 25, 50, 100 MG/KG IN CORN OIL 5 D/WK FOR 103 WK, Tumor Site: Type of Lesion: LUNG: ALVEOLAR/BRONCHIOLAR CARCINOMA, ALVEOLAR/BRONCHIOLAR ADENOMA, HEMATOPOIETIC SYSTEM: MALIGNANT LYMPHOMA, LEUKEMIA O) “active; positive”; (Species: MOUSE, Strain/Sex: C57BL/FEMALE, Route: INHALATION, Dose: 0, 300 PPM 6 HR/D 5 D/WK FOR 16 WK (STUDY DURATION: 64 WK), Tumor Site: Type of Lesion: LYMPHATIC SYSTEM: LYMPHOMA) “active; positive”; (Species: MOUSE, Strain/Sex: C57BL/FEMALE, Route: INHALATION, Dose: 0, 300 PPM 6 HR/D 5 D/WK FOR 16 WK (STUDY DURATION: 750 D), Tumor Site: Type of Lesion: HEMATOPOIETIC SYSTEM: LYMPHOCYTIC LEUKEMIA, LEUKEMIA, THYMUS GLAND: LEUKEMIA, ZYMBAL GLAND: TUMOR, OVARY: TUMOR, Tumor Site: Type of Lesion: HEMATOPOIETIC SYSTEM: LYMPHOCYTIC LEUKEMIA, LEUKEMIA, THYMUS GLAND: LEUKEMIA, ZYMBAL GLAND: TUMOR, OVARY: TUMOR) “active; positive”. Besides, the carcinogen call was “active; positive” (Species: MOUSE, Strain/Sex: C57BL/MALE, Route: INHALATION, Dose: 0, 300 PPM 6HR/D, 5D/WK FOR 1 WK FOLLOWED BY 2 WK NO TREATMENT, CYCLE REPEATED FOR LIFESPAN (STUDY DURATION: LIFESPAN), Tumor Site: Type of Lesion: LUNG: ADENOMA, HEMATOPOIETIC SYSTEM: LEUKEMIA OR LYMPHOMA, ZYMBAL GLAND: CARCINOMA, Tumor Site: Type of Lesion: LUNG: ADENOMA, HEMATOPOIETIC SYSTEM: LEUKEMIA OR LYMPHOMA, ZYMBAL GLAND: CARCINOMA); “active; positive” (Species: MOUSE, Strain/Sex: C57BL/MALE, Route: INHALATION, Dose: 0, 300 PPM 6 HR/D, 5 D/WK FOR LIFE, Tumor Site: Type of Lesion: HEMATOPOIETIC SYSTEM: LYMPHOCYTIC LYMPHOMA); “inactive; negative” (Species: MOUSE, Strain/Sex: C57BL/MALE, Route: INHALATION, Dose: 0, 1200 PPM 6HR/D, 5D/WK FOR 10 WK (STUDY DURATION: LIFESPAN)); “active; positive” (Species: MOUSE, Strain/Sex: CBA/CA BNL/FEMALE, Route: INHALATION, Dose: 0, 300 PPM 6 HR/D 5 D/WK FOR 16 WK (STUDY DURATION: >1100 D), Tumor Site: Type of Lesion: HEMATOPOIETIC SYSTEM: MYELOGENOUS NEOPLASM); “active; positive” (Species: MOUSE, Strain/Sex: CBA/CA BNL/MALE, Route: INHALATION, Dose: 0, 100, 300 PPM 6 HR/D 5 D/WK FOR 16 WK (STUDY DURATION: >1100 D), Dose: 0, 100, 300 PPM 6 HR/D 5 D/WK FOR 16 WK (STUDY DURATION: >1100 D), Tumor Site: Type of Lesion: HEMATOPOIETIC SYSTEM: MYELOGENOUS NEOPLASM); “active; positive” (Species: MOUSE, Strain/Sex: CBA/MALE, Route: INHALATION, Dose: 0, 300 PPM 6 HR/D 5 D/WK FOR 16 WK (STUDY DURATION: 22 MO), Tumor Site: Type of Lesion: LYMPHATIC SYSTEM: MALIGNANT LYMPHOMA, PREPUTIAL GLAND: SQUAMOUS CELL CARCINOMA, LUNG: ADENOMA, Tumor Site: Type of Lesion: LYMPHATIC SYSTEM: MALIGNANT LYMPHOMA, PREPUTIAL GLAND: SQUAMOUS CELL CARCINOMA, LUNG: ADENOMA). For the same molecule, the carcinogen call (Species: MOUSE, Strain/Sex: CD-1/MALE, Route: INHALATION, Dose: 0, 300 PPM 6HR/D, 5D/WK FOR 1 WK FOLLOWED BY 2 WK NO TREATMENT, CYCLE REPEATED FOR LIFESPAN (STUDY DURATION: LIFESPAN), Tumor Site: Type of Lesion: LUNG: ADENOMA, HEMATOPOIETIC SYSTEM: LEUKEMIA OR LYMPHOMA, ZYMBAL GLAND: CARCINOMA, Tumor Site: Type of Lesion: LUNG: ADENOMA, HEMATOPOIETIC SYSTEM: LEUKEMIA OR LYMPHOMA, ZYMBAL GLAND: CARCINOMA) is “active; positive”; the carcinogen call (Species: MOUSE, Strain/Sex: CD-1/MALE, Route: INHALATION, Dose: 0, 1200 PPM 6HR/D, 5D/WK FOR 10 WK (STUDY DURATION: LIFESPAN), Tumor Site: Type of Lesion: LUNG: ADENOMA, HEMATOPOIETIC SYSTEM: LEUKEMIA OR LYMPHOMA, ZYMBAL GLAND: CARCINOMA, Tumor Site: Type of Lesion: LUNG: ADENOMA, HEMATOPOIETIC SYSTEM: LEUKEMIA OR LYMPHOMA, ZYMBAL GLAND: CARCINOMA) was “active; positive”; the carcinogen call (Species: MOUSE, Strain/Sex: EU-PIM-1/FEMALE, Route: GAVAGE, Dose: 0, 50, 100 MG/KG 1/D FOR 40 WK (STUDY DURATION: 40 WK), Dose: 0, 50, 100 MG/KG 1/D FOR 40 WK (STUDY DURATION: 40 WK)) is “inactive; negative”; the carcinogen call (Species: MOUSE, Strain/Sex: EU-PIM-1/MALE, Route: GAVAGE, Dose: 0, 50, 100 MG/KG 1/D FOR 40 WK (STUDY DURATION: 40 WK), Dose: 0, 50, 100 MG/KG 1/D FOR 40 WK (STUDY DURATION: 40 WK)) is “inactive; negative”; the carcinogen call (Species: MOUSE, Strain/Sex: SWISS/FEMALE, Route: GAVAGE, Dose: 0, 500 MG/KG IN OLIVE OIL 1/D FOR 4 TO 5 D/WK FOR 78 WK (STUDY DURATION: LIFETIME), Tumor Site: Type of Lesion: MAMMARY GLAND: CARCINOMA, LUNG: TUMORS, ZYMBAL GLAND: CARCINOMA, Tumor Site: Type of Lesion: MAMMARY GLAND: CARCINOMA, LUNG: TUMORS, ZYMBAL GLAND: CARCINOMA) was “active; positive”; the carcinogen call (Species: MOUSE, Strain/Sex: SWISS/FEMALE, Route: INTRAGASTRIC, Dose: 0, 500 MG/KG IN OLIVE OIL 1/D 4-5 D/WK FOR 78 WK (STUDY DURATION: LIFESPAN), Tumor Site: Type of Lesion: LUNG: ADENOMA, MAMMARY GLAND: MALIGNANT TUMOR) is “active; positive”. For the same molecule, the carcinogen call reads like this: (Species: MOUSE, Strain/Sex: SWISS/FEMALE, Route: INTRAPERITONEAL, Dose: 0, 36.1, 137.3 UMOL ADMINISTERED AS 3 UNEQUAL DOSES (1/7, 2/7, AND 4/7 OF THE TOTAL DOSE) OVER A 2-WK PERIOD (STUDY DURA, Dose: 0, 36.1, 137.3 UMOL ADMINISTERED AS 3 UNEQUAL DOSES (1/7, 2/7, AND 4/7 OF THE TOTAL DOSE) OVER A 2-WK PERIOD (STUDY DURA) “inactive; negative”; (Species: MOUSE, Strain/Sex: SWISS/MALE, Route: GAVAGE, Dose: 0, 500 MG/KG IN OLIVE OIL 1/D FOR 4 TO 5 D/WK FOR 78 WK (STUDY DURATION: LIFETIME), Tumor Site: Type of Lesion: LUNG: TUMOR, ZYMBAL GLAND: CARCINOMA) “active; positive”; (Species: MOUSE, Strain/Sex: SWISS/MALE, Route: INTRAGASTRIC, Dose: 0, 500 MG/KG IN OLIVE OIL 1/D 4-5 D/WK FOR 78 WK (STUDY DURATION: LIFESPAN), Tumor Site: Type of Lesion: ZYMBAL GLAND: CARCINOMA, LUNG: ADENOMA) “active; positive”; (Species: MOUSE, Strain/Sex: SWISS/MALE, Route: INTRAPERITONEAL, Dose: 0, 36.1, 137.3 UMOL ADMINISTERED AS 3 UNEQUAL DOSES (1/7, 2/7, AND 4/7 OF THE TOTAL DOSE) OVER A 2-WK PERIOD (STUDY DURA, Dose: 0, 36.1, 137.3 UMOL ADMINISTERED AS 3 UNEQUAL DOSES (1/7, 2/7, AND 4/7 OF THE TOTAL DOSE) OVER A 2-WK PERIOD (STUDY DURA) “inactive; negative”; (Species: Mouse, Strain/Sex: C57BL/6 (heterozygous Trp53-deficient)/Male, Route: Inhalation, Dose: 0, 33, 100, 300 ppm 6 hr/d, 5 d/wk for 26 wks, then no exposure for lifetime, Dose: 0, 33, 100, 300 ppm 6 hr/d, 5 d/wk for 26 wks, then no exposure for lifetime, Tumor Site: Type of Lesion: Blood: hematopoietic neoplasms (38, 41, 36, 89%). Lymphoid tissue: thymic lymphoma (0, 4,16, 73%)) “active; positive (highest dose)”.
